Experimental data as given in patent US20250213474A1, “COMPOSITIONS AND METHODS FOR METAL CONTAINING FORMULATIONS CAPABLE OF MODULATING IMMUNE RESPONSE” (The Regents of the University of Michigan, priority 2021, published 2025).

How the values were obtained:
[1] = tested on: THP 1 dual-KI-hSTING^WT(R232) reporter cells; experiment: Cellular viability of chelator-treated THP 1 dual-KI-hSTING WT(R232) reporter cells; type: cell-based, human
Text: (§1) FIGS. 18A-18F: Chelating metal ions to inhibit cGAS-STING-Type I IFN pathway. (FIG. 18A) Molecular structure of representative chelators that could inhibit cGAS-STING-Type I IFN pathway. (FIGS. 18B-18C) Dose-inhibition curves of the IFN-I response (FIG. 18B) and NF-kB inflammation response (FIG. 18C) by the indicated compounds in DNA/lipofectamine 2000 (ThermoFisher, 11668027) treated THP 1 dual-KI-hSTING^WT(R232) reporter cells (Invivogen, thpd-r232). (FIG. 18D) Cellular viability of FIGS. 18B-18C. (FIG. 18E) Dose-inhibition curves of the IFN-I response by the indicated compounds in DNA/lipofectamine 2000 (ThermoFisher, 11668027) treated THP 1-ISG hSTING^HAQ reporter cells (Invivogen, thp-isg). […]
(§2) Given the interesting function of metal ions on modulating innate immune response in our finding, we further evaluated whether chelating metal ions could inhibit the according innate immune pathways, which may be used to treat autoimmune diseases, such as Systemic lupus erythematosus, Aicardi-Goutieres syndrome, Acute pancreatitis Age-dependent macular degeneration, Alcoholic liver disease, Liver fibrosis, Metastasis, Myocardial infarction, Nonalcoholic steatohepatitis (NASH), Parkinson's disease, Polyarthritis/fetal and neonatal anemia, Sepsis, inflammatory bowel disease, multiple sclerosis, etc. […] By a ISRE induced luminescence, we could read the degree of inhibition. […]

[2] = tested on: cGAS-STING-Type I IFN pathway; experiment: Inhibition of DNA/lipofectamine-induced IFN-I response in THP 1 dual-KI-hSTING WT(R232) reporter cells; type: cell-based, human; settings: DNA/lipofectamine complex challenging, ISRE induced luminescence
Text: as §1, §2

CT26 colon cancer cells = experiment: CT26 tumor model, intratumoral cdAMP(ps)2 formulations; type: in vivo, Balb/c mice
Method: When tumor size reach ˜60 mm^3, 2 doses of 25 ug/dose cdAMP(ps)2 were administrated intra-tumorally on days 10 and 15. To evaluate antigen-specific immune responses, PBMCs were collected for tetramer staining on day 17 and ELISPOT analysis with AH1 antigen peptides on day 22. […] Although CDN-Zn seemed to better inhibit tumor growth, compared with CDN and CDNs@CaP/PEI-PEG, there was no statistical difference among them. For the survival of mice after treatment, median survival time for untreated, CDN, CDN-Zn and CDNs@CaP/PEI-PEG group was 23 days, 42 days, 64 days and unreached, respectively (FIG. 4B).
All animals were cared for following federal, state, and local guidelines. All work performed on animals was in accordance with and approved by the University Committee on Use and Care of Animals (UCUCA) at University of Michigan, Ann Arbor. Female Balb/c mice of age 6-8 weeks (Jackson Laboratories) were inoculated with 1×10^5 CT26 colon cancer cells. When tumor size achieved ˜100 mm^3, 2 doses of 25 ug cdAMP(ps)2 in different formulations were administrated via intra-tumoral route on day 10 and day 15. Tumor size and survival were monitored every 2 or 3 days. Tumor size was calculated based on equation: volume=length×width^2×0.5. Animals were euthanized when the tumor reached 1.5 cm in diameter or when animals became moribund with severe weight loss or ulceration. At day 17, the percentages of tumor antigen-specific CD8α+ T cells among PBMC were analyzed using the tetramer staining assay as described previously with peptide-MHC tetramer ([…] AH1) (the NIH Tetramer Core Facility, Atlanta, GA). On day 22, ELISPOT assay was performed with PBMC from the treated mice as described previously.
All animals were cared for following federal, state, and local guidelines. All work performed on animals was in accordance with and approved by the University Committee on Use and Care of Animals (UCUCA) at University of Michigan, Ann Arbor. Female Balb/c mice of age 6-8 weeks (Jackson Laboratories) were inoculated with 1×10^5 CT26 colon cancer cells. When tumor size achieved ˜50 mm^3, indicated drugs or formulations were administrated via the indicated route. Tumor size and survival were monitored every 2 or 3 days. Tumor size was calculated based on equation: volume=length×width^2×0.5. Animals were euthanized when the tumor reached 1.5 cm in diameter or when animals became moribund with severe weight loss or un-healing ulceration. At day 17, the percentages of tumor antigen-specific CD8α+ T cells among PBMC were analyzed using the tetramer staining assay as described previously with peptide-MHC tetramer ([…] AH1) (the NIH Tetramer Core Facility, Atlanta, GA). […]
We also evaluated a subset of the formulations mentioned above in tumor-bearing mice. […]

[3] = 2 doses of 25 ug/dose cdAMP(ps)2 intratumorally on days 10 and 15

Compound	tolerability in in-vitro assay (cellular viability) [1]	IC50 of DNA-induced Type I IFN response [2]	average tumor growth compared with the untreated group (CT26 colon cancer cells; [3])	median survival time (CT26 colon cancer cells; [3]) [days]	AH1 antigen-specific T cell response (ELISPOT) (CT26 colon cancer cells; day 22, seven days after the 2nd dose)	complete tumor regression (CT26 colon cancer cells; individual tumor growth curves, 5 mice per group)
O=C1O[C@H]2[C@@H]3OC(=O)c4cc(O)c(O)c(O)c4-c4c(O)c(O)c5oc(=O)c6c(c(O)c(O)c7oc(=O)c4c5c76)-c4c(cc(O)c(O)c4O)C(=O)OC[C@H]3OC(O)[C@@H]2OC(=O)c2cc(O)c(O)c(O)c2-c2c1cc(O)c(O)c2O (mixture of isomers) [Punicalagin]	well-tolerated	as low as nanomolar level	–	–	–	–
cdAMP(ps)2 [free CDN]	–	–	greatly delayed	42	significant AH1 antigen-specific T cell response	2 out of 5
O=C(OC[C@H]1O[C@@H](OC(=O)c2cc(O)c(O)c(OC(=O)c3cc(O)c(O)c(O)c3)c2)[C@H](OC(=O)c2cc(O)c(O)c(OC(=O)c3cc(O)c(O)c(O)c3)c2)[C@@H](OC(=O)c2cc(O)c(O)c(OC(=O)c3cc(O)c(O)c(O)c3)c2)[C@@H]1OC(=O)c1cc(O)c(O)c(OC(=O)c2cc(O)c(O)c(O)c2)c1)c1cc(O)c(O)c(OC(=O)c2cc(O)c(O)c(O)c2)c1 [tannin acid, Tannic acid]	well-tolerated	as low as nanomolar level	–	–	–	–
